# Entries after “also recorded” stand apart in the source; their conditions may differ.
# Columns and labels:
# [1] = known side effects; cited from earlier work
# [2] = test system: Dutch Belted Rabbits; assay: Pupillary diameter (pupillometry) after single ocular administration, rabbit eye model; format: in vivo
# Description: Study design: 3 Dutch Belted Rabbits (pigmented breed)/group received a single ocular administration of test articles (one drop per eye) at 3 concentrations (tested one week apart). After a 2-week rest period, combinations were tested. Ocular Irritation was assessed using a modified Draize test. Intraocular pressure (IOP) was measured at baseline, 1 h, 4 h, 6 h and 24 h. Pupillary Diameter was measured at baseline, 15 min, 1 h, 4 h and 6 h after dosing.
# Due to the variation in pupillary diameter and IOP between rabbits and between eyes within rabbits, the data for pupillary diameter and IOP were normalized and presented with error bars (SD). A change of 15% to 20% approximates a pupillary diameter change of 1 mm. In human, a reduction of pupillary diameter of about 2 mm is clinically generally desired.
# [3] = test system: pupillary muscle; assay: Effect of benzalkonium chloride on the miotic effect of carbachol; format: in vivo; settings: carbachol 0.025% to 0.075%
# Description: In still further experiments, the inventors investigated the effect of benzalkonium chloride on the miotic effect of carbachol. To that end, different concentrations of BAC were employed between 0.005% and 0.02% at carbachol concentrations between 0.025% and 0.075%, and the results are shown in FIGS. 6A-6C.
# [4] = test system: human individuals; assay: Miotic response (dose response, eye color) to carbachol formulations in human; format: in vivo
# Description: FIG. 7 is a graph depicting exemplary results for a dose response in human using a carbachol formulation according to the inventive subject matter.
# FIG. 8 is a graph depicting exemplary results for miotic response in human individuals of different eye color using a 0.29% carbachol formulation according to the inventive subject matter.
# FIG. 9 is a graph depicting exemplary results for miotic response in human individuals of different eye color using a 0.50% carbachol formulation according to the inventive subject matter.
# FIG. 10 is a graph depicting exemplary results for miotic response in human individuals of different eye color using a 0.75% carbachol formulation according to the inventive subject matter.
# To optimize the concentration of carbachol in the topical ophthalmic formulations, the inventors tested various dosages, and the table below depicts the composition for the carbachol formulations used.
# Exemplary results for the miotic effect of carbachol at 0.29%, 0.50%, and 0.75% are depicted in FIG. 7.
# [5] = 0.5% and 1%, one drop per eye, rabbit
molecule,measurement,setting,value
"CC(=O)OC1CN2CCC1CC2 (stereo not shown) [aceclidine, 1-azabicyclo[2.2.2]octan-3-yl acetate]",side effects,[1],increased salivation and bradycardia
Brc1c(NC2=NCCN2)ccc2nccnc12 [Brimonidine],effect on pupillary diameter (in words),"[2]; doses tested, concentration not given, rabbit",little to no effect
"N-Alkyl-N-benzyl-N,N-dimethyl-ammonium chloride [BAC]",effect of BAC on miotic effect of carbachol,[3]; BAC 0.005%,minimal effect
same,effect of BAC on miotic effect of carbachol,[3]; BAC 0.01%,somewhat more pronounced
same,effect of BAC on miotic effect of carbachol,[3]; BAC at least 0.02%,significant
CCN(C)C(=O)Oc1cccc([C@H](C)N(C)C)c1 [Rivastigmine],decrease in pupillary diameter,"[2]; 1% alone, rabbit",1 mm
same,effect on pupillary diameter (in words),"[2]; 1% alone, rabbit",very low effects as compared to carbachol; also recorded: performed substantially similar to Phentolamine; also recorded: desirable effect
COc1ccc2c3c1O[C@H]1C[C@@H](O)C=C[C@@]31CCN(C)C2 [Galantamine],duration of reduction in pupillary diameter,"[2]; 2% (high dose) alone, rabbit",at least 1 h
same,decrease in pupillary diameter,"[2]; 2% alone, rabbit",1-2 mm
"C[N+](C)(C)CCOC(N)=O [Carbachol, carbamoylcholine]",duration of action,"[2]; carbachol doses tested, rabbit",2 to 4 h
same,duration of miotic efficacy,"[4]; 0.5%, single dose",3 h
same,saturation of dose response,[4]; tested formulations,0.5%
Cc1ccc(N(CC2=NCCN2)c2cccc(O)c2)cc1 [Phentolamine],decrease in the pupil,[2]; [5],approximately 1 mm
same,duration of decrease in the pupil,[2]; [5],at least 6 h
same,duration of reduction in pupillary diameter,"[2]; all doses, FIG. 1, rabbit",at least 6 h
same,reduction in pupillary diameter (in words),"[2]; all doses, FIG. 1, rabbit",a reduction in pupillary diameter occurred at all doses
